In PubChem BioAssay (NCI) one finds TGI and GI50 data, which are given here for 13 molecules.

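Results reflect a 48-hour exposure of cells in 96-well plates to compound at five concentrations. At the GI50, growth is halved. TGI marks complete inhibition of growth.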

Some test systems named below: KM12 colon; SW-620 colon; DU-145 prostate; BT-549 breast; K-562 leukemia; RXF 393 renal; MDA-MB-231 breast; OVCAR-4 ovarian; LOX IMVI melanoma; SN12C renal.
Common to all, as to experiment: growth of human tumour cells (NCI), 48 h

For the molecule `BrC(Br)=C1C(=C(Br)Br)C(Br)C1Br` (stereo not given), the TGI in the test on KM12 colon came to 2.15 µM; with SW-620 colon, 1 µM; with DU-145 prostate, 0.502 µM; with BT-549 breast, 6.93 µM; in the test on K-562 leukemia, 1.19 µM; with RXF 393 renal it was 0.948 µM. Also, the TGI came to 3.63 µM in the test on MDA-MB-231 breast, 6.18 µM in the test with OVCAR-4 ovarian, 1.03 µM with LOX IMVI melanoma and 2.31 µM in the test with SN12C renal.
On to `C=C(CN1CCN(c2ccc(C(F)(F)F)cc2)CC1)c1ccc(C(=O)Nc2ccccc2N)cc1`, for which the GI50 in the test with KM12 colon was 7640 nM; with SW-620 colon, more than 78800 nM; with DU-145 prostate, 21000 nM; with BT-549 breast, 6930 nM; in the test on K-562 leukemia, 302 nM; in the test with RXF 393 renal, 1970 nM. For the same molecule, the GI50 with MDA-MB-231 breast was 3600 nM; in the test on OVCAR-4 ovarian, 5.68 µM; in the test with LOX IMVI melanoma it was 11100 nM; with SN12C renal, 6370 nM. The TGI in the test with KM12 colon was more than 100 µM; in the test with SW-620 colon it was more than 100 µM; in the test on DU-145 prostate it was more than 100 µM; in the test on BT-549 breast, 97.8 µM; in the test on K-562 leukemia it was more than 36.5 µM; in the test on RXF 393 renal it was 6 µM. Besides, the TGI in the test with MDA-MB-231 breast is more than 71.3 µM; in the test with OVCAR-4 ovarian it was more than 100 µM; in the test with LOX IMVI melanoma, more than 100 µM; in the test with SN12C renal it was more than 100 µM.
For `C=C1CC2(CC(c3ccccc3Cl)OC(c3ccccc3Cl)C2)OC1=O` (stereo not given), the TGI in the test on KM12 colon was 7.56 µM; in the test with SW-620 colon, 5.21 µM; with DU-145 prostate it was 14.4 µM; with BT-549 breast it was 4.59 µM; with K-562 leukemia, more than 25.3 µM; in the test with RXF 393 renal, 4.77 µM. Further, the TGI amounted to 3.45 µM with MDA-MB-231 breast, 8.56 µM in the test on OVCAR-4 ovarian, 2.72 µM with LOX IMVI melanoma and 5.75 µM with SN12C renal.
`Cc1c(-c2ccc(C3CCCCC3)cc2)nc2ccc(F)cc2c1C(=O)O`: the GI50 with KM12 colon was 402 nM; in the test on SW-620 colon, 228 nM; in the test on DU-145 prostate, 802 nM; in the test with BT-549 breast, 9890 nM; in the test with K-562 leukemia, 57.4 nM; with RXF 393 renal it was 10700 nM. For the same molecule, the GI50 in the test on MDA-MB-231 breast is 8900 nM; in the test with OVCAR-4 ovarian, 38 µM; with LOX IMVI melanoma, 51.2 nM; in the test on SN12C renal it was 546 nM. Further, the TGI with KM12 colon, in the test on SW-620 colon, with DU-145 prostate, in the test with BT-549 breast, with K-562 leukemia and in the test on RXF 393 renal was more than 100 µM each time. Further, the TGI in the test with MDA-MB-231 breast, in the test with OVCAR-4 ovarian, in the test on LOX IMVI melanoma and in the test on SN12C renal was more than 100 µM throughout.
As to `C[C@@]1(C(=O)O)CCC[C@]2(C)C1CC[C@@]13C[C@@](O)(CC[C@]12O)[C@@]1(CO1)C3` (stereo not given in full), the GI50 in the test on KM12 colon, in the test with SW-620 colon, with DU-145 prostate, in the test on BT-549 breast, with K-562 leukemia and in the test with RXF 393 renal was more than 100000 nM in each case. The GI50 in the test with MDA-MB-231 breast is more than 100000 nM; in the test with OVCAR-4 ovarian it was more than 100 µM; with LOX IMVI melanoma it was more than 100000 nM; in the test on SN12C renal it was more than 100000 nM. Moreover, the TGI with KM12 colon, with SW-620 colon, in the test on DU-145 prostate, with BT-549 breast, in the test on K-562 leukemia and with RXF 393 renal was more than 100 µM in each case. For the same molecule, the TGI in the test on MDA-MB-231 breast, with OVCAR-4 ovarian, in the test on LOX IMVI melanoma and in the test on SN12C renal was more than 100 µM each time.
For `O=C1/C=C/[C@@H](O)[C@@H]2C[C@@H](O)C[C@H]2/C=C/CCC[C@H](CCc2cccc3ccccc23)O1`, the GI50 in the test with KM12 colon is 32 nM; in the test on SW-620 colon it was 51.8 nM; in the test with DU-145 prostate it was 377 nM; with BT-549 breast it was 60.9 nM; in the test with K-562 leukemia, 368 nM; in the test with RXF 393 renal it was 22.7 nM. Besides, the GI50 is 46.4 nM in the test with MDA-MB-231 breast, 0.0525 µM in the test with OVCAR-4 ovarian, 32.3 nM with LOX IMVI melanoma and 248 nM with SN12C renal. In addition, the TGI is 0.959 µM with KM12 colon; 0.451 µM with SW-620 colon; 14.7 µM in the test with DU-145 prostate; 12.1 µM in the test on BT-549 breast; 14.4 µM in the test with K-562 leukemia; 0.0674 µM with RXF 393 renal. Besides, the TGI with MDA-MB-231 breast is 0.119 µM; with OVCAR-4 ovarian, 3.82 µM; in the test on LOX IMVI melanoma, 0.11 µM; in the test with SN12C renal, 11.5 µM.
Take `C[C@H]1/C(=C/C(=O)OCCN(C)C)CC[C@H]2[C@H]1C(=O)C[C@H]1C(C)(C)[C@@H](O)CC[C@]21C`: the TGI in the test with KM12 colon, in the test on SW-620 colon, in the test with DU-145 prostate, with BT-549 breast, with K-562 leukemia and in the test with RXF 393 renal was more than 100 µM throughout. The TGI in the test with MDA-MB-231 breast, with OVCAR-4 ovarian, in the test on LOX IMVI melanoma and in the test on SN12C renal was more than 100 µM throughout. Moreover, the GI50 in the test with K-562 leukemia was more than 100000 nM.
Turning to `O=C(CCl)NCCNc1nccc(Nc2ccc(S(=O)(=O)Nc3ccccn3)cc2)n1`, the GI50 in the test with KM12 colon was 3120 nM; in the test with SW-620 colon, 2490 nM; in the test on DU-145 prostate it was 2450 nM; with BT-549 breast, 2320 nM; in the test on K-562 leukemia, 2570 nM; in the test on RXF 393 renal, 2610 nM. Also, the GI50 is 2900 nM in the test on MDA-MB-231 breast, 3.1 µM in the test with OVCAR-4 ovarian, 1750 nM in the test on LOX IMVI melanoma and 2850 nM in the test on SN12C renal. In addition, the TGI is 11.6 µM in the test on KM12 colon; 7.27 µM in the test with SW-620 colon; 12.3 µM in the test with DU-145 prostate; 13.9 µM with BT-549 breast; 17 µM in the test on K-562 leukemia; 7.83 µM with RXF 393 renal. The TGI stood at 9.98 µM in the test with MDA-MB-231 breast, 25.3 µM in the test with OVCAR-4 ovarian, 4.12 µM in the test on LOX IMVI melanoma and 11.1 µM in the test with SN12C renal.
For the molecule `CCCCCCCCCCCCCCCCCc1nccn1CCOCCO`, the GI50 in the test with KM12 colon is 6.06 µg/mL; with SW-620 colon, 6.19 µg/mL; in the test with DU-145 prostate, 5.34 µg/mL; in the test on BT-549 breast, 6.1 µg/mL; with K-562 leukemia, 4.87 µg/mL; with RXF 393 renal, 5.04 µg/mL. Besides, the GI50 was 4.4 µg/mL with MDA-MB-231 breast, 4.46 µg/mL in the test on OVCAR-4 ovarian, 5.11 µg/mL in the test with LOX IMVI melanoma and 5.11 µg/mL in the test on SN12C renal. Further, the TGI in the test on KM12 colon turned out to be 11.4 µg/mL; with SW-620 colon, 11.7 µg/mL; with DU-145 prostate, 10.4 µg/mL; with BT-549 breast it was 11.7 µg/mL; with K-562 leukemia, 12.1 µg/mL; in the test with RXF 393 renal, 10.1 µg/mL. Moreover, the TGI stood at 9.29 µg/mL with MDA-MB-231 breast, 9.62 µg/mL in the test with OVCAR-4 ovarian, 10.4 µg/mL in the test on LOX IMVI melanoma and 10.1 µg/mL in the test on SN12C renal.
As for `O=C1/C(=C/c2ccccc2)CN(C(=O)C(Cl)Cl)C/C1=C\c1ccccc1`, the GI50 in the test on KM12 colon is 267 nM; in the test on SW-620 colon, 135 nM; in the test with DU-145 prostate it was 1210 nM; in the test on BT-549 breast, 1240 nM; in the test with K-562 leukemia it was 134 nM; in the test on RXF 393 renal, 914 nM. The GI50 was 807 nM with MDA-MB-231 breast, 1.12 µM in the test with OVCAR-4 ovarian, 139 nM in the test on LOX IMVI melanoma and 430 nM with SN12C renal. For the same molecule, the TGI in the test with KM12 colon came to 0.845 µM; in the test with SW-620 colon it was 0.44 µM; with DU-145 prostate it was 2.47 µM; with BT-549 breast, 2.69 µM; with RXF 393 renal it was 2.33 µM; in the test on MDA-MB-231 breast it was 2.46 µM. For the same molecule, the values for the TGI in the test on OVCAR-4 ovarian, in the test on LOX IMVI melanoma and in the test with SN12C renal were 2.44 µM, 0.353 µM and 1.26 µM, respectively.
For `COc1cc2c3cc1Oc1c(OC)c(OC)cc4c1C(=NCC4)Cc1ccc(cc1)Oc1cc(ccc1O)C[C@H]3N(C)CC2`, the TGI in the test on KM12 colon was 29.8 µM; in the test on SW-620 colon, 36.7 µM; in the test with DU-145 prostate, more than 100 µM; in the test on BT-549 breast, 24.9 µM; in the test on K-562 leukemia, 74.1 µM; with RXF 393 renal, 24.9 µM. The TGI with MDA-MB-231 breast came out at 27.8 µM; with OVCAR-4 ovarian it was 40.7 µM; in the test with LOX IMVI melanoma, 25.1 µM; with SN12C renal it was 75.2 µM.
For the molecule `O=C(/C=C/c1ccc(Cl)cc1)c1ccccc(=O)c1O`, the TGI in the test on KM12 colon was 6.45 µM; in the test with SW-620 colon, more than 40 µM; in the test on DU-145 prostate, 19.1 µM; with BT-549 breast, 13.5 µM; in the test with K-562 leukemia, 12.1 µM; in the test on RXF 393 renal, more than 100 µM. Moreover, the TGI in the test with MDA-MB-231 breast was 23.6 µM; in the test on OVCAR-4 ovarian, 17.9 µM; in the test on LOX IMVI melanoma it was 13 µM; in the test on SN12C renal, 4.58 µM.
With `O=c1[nH]c2ccccc2c2nc3ccccc3n12`, the TGI with KM12 colon, in the test with SW-620 colon, in the test with DU-145 prostate, in the test with BT-549 breast, in the test with K-562 leukemia and in the test on RXF 393 renal was more than 100 µM each time. In addition, the TGI with MDA-MB-231 breast is more than 100 µM; in the test on OVCAR-4 ovarian, 14 µM; with LOX IMVI melanoma, more than 100 µM; in the test on SN12C renal it was more than 100 µM.
